Values of other authors, collected in US11857530B2, “Cannabinoid formulations” (Endocanna Health, Inc., priority 2017, dated 2024).

Experiments:
CYP3A4 = CYP3A4 (Homo sapiens, UniProt P08684); conditions: after oromucosal dosing; for boost of THC and CBD levels by ketoconazole: co-administered CYP3A4 inhibitor ketoconazole; for boost of THC and CBD levels by the CYP3A4 inhibitor ketoconazole: clinical studies, co-administered ketoconazole
ABCB1 = ABCB1 (Homo sapiens, UniProt P08183)
ABCB1, sequence (P08183 whole entry): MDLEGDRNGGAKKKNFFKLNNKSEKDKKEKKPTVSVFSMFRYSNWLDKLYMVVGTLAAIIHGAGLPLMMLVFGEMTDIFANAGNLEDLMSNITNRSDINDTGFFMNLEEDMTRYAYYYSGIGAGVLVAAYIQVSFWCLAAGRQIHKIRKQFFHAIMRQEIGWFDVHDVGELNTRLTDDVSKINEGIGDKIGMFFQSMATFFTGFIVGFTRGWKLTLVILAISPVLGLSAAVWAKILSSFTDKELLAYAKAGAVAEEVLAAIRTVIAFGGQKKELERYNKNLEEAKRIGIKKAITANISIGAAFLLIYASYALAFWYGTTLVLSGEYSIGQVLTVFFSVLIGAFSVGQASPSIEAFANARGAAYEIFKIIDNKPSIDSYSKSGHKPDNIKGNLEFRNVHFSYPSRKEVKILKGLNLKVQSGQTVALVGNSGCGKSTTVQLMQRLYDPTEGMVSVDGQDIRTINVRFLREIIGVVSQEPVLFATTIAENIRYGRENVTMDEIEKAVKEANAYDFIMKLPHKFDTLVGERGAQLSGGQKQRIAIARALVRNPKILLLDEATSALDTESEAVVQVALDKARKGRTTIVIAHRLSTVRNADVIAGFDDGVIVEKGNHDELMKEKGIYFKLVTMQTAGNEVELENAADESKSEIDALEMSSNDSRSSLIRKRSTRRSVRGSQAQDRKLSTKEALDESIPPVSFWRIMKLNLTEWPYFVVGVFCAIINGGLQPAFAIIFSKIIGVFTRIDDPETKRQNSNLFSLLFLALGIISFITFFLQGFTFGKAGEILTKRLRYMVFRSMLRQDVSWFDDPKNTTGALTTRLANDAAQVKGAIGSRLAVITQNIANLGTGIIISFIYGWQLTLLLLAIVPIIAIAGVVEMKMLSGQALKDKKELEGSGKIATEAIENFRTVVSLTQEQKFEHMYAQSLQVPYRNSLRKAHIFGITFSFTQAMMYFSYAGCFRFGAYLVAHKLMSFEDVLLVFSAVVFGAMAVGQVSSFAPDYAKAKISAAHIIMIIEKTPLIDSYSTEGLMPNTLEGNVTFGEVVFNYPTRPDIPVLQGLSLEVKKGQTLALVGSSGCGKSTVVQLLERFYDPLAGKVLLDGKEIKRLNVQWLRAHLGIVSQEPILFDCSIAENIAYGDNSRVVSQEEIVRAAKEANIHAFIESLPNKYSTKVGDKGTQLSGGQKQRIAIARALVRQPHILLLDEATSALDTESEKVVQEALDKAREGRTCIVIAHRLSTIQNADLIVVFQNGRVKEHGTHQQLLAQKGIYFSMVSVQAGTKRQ

CYP3A4, sequence (P08684 whole entry): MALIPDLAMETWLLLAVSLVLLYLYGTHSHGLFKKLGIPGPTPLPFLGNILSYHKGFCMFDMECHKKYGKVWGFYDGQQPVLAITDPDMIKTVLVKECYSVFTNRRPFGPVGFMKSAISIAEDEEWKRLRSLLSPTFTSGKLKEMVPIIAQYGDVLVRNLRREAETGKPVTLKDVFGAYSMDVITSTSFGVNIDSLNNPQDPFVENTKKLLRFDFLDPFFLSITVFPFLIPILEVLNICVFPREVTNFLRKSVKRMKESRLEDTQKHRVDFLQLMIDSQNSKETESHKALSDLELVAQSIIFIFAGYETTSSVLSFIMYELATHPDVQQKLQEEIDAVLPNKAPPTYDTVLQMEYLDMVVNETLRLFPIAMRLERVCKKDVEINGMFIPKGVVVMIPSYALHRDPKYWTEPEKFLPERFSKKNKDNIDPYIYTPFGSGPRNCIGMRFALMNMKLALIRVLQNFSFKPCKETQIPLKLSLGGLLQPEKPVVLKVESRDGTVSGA

SMILES	boost of THC and CBD levels by ketoconazole (CYP3A4)	boost of THC and CBD levels by the CYP3A4 inhibitor ketoconazole (CYP3A4)	THC levels, fold lower, Homozygous MINOR Alleles (T/T) (ABCB1; ABCB1 SNIP 2-01-AFMLG, genotype T/T)	blood THC levels after consuming THC (ABCB1; users with homozygous alleles (T/T) at rs1045642 of ABCB1, relative to people with a different genotype)
CCCCCc1cc(O)c2c(c1)OC(C)(C)[C@@H]1CCC(C)=C[C@@H]21 [THC, Tetrahydrocannabinol]	approximately 2 fold	dosing by approximately 2-fold	may have 2-fold lower	two-fold lower
C=C(C)[C@@H]1CCC(C)=C[C@H]1c1c(O)cc(CCCCC)cc1O [CBD, Cannabidiol]	approximately 2 fold	dosing by approximately 2-fold		
